Experimental data: ChEMBL document CHEMBL4680323, “'Proximity frequencies' a new parameter to evaluate the profile of GABAR modulators” (Bioorg Med Chem Lett, 2021)
Calls of active or inactive are those of the source. The rule behind the calls is not given here.

Columns and labels:
Type in all cases: cell-based
Oocyte [1] = assay: Modulatory activity at GABAA alpha1/beta2/gamma2L (unknown origin) expressed in Xenopus laevis oocyte assessed as chloride current at 1 to 100 uM; details: Homo sapiens, dose 1-100 µM
Oocyte [2] = assay: Antagonist activity at GABAA alpha1/beta2/gamma2L (unknown origin) expressed in Xenopus laevis oocyte assessed as reduction in lorazepam-induced chloride current at 100 uM relative to control; set-up: scale not given: the % may be the effect or the level left; details: Homo sapiens, filed as antagonist
Oocyte [3] = assay: Agonist activity at GABAA alpha1/beta2/gamma2L (unknown origin) expressed in Xenopus laevis oocyte assessed as increase in chloride current at 30 uM relative to control; details: Homo sapiens, filed as agonist
Oocyte [4] = assay: Inverse agonist activity at GABAA alpha1/beta2/gamma2L (unknown origin) expressed in Xenopus laevis oocyte assessed as reduction in chloride current at 100 uM relative to control; set-up: scale not given: the % may be the effect or the level left; details: Homo sapiens, filed as inverse agonist
Oocyte [5] = assay: Inverse agonist activity at GABAA alpha1/beta2/gamma2L (unknown origin) expressed in Xenopus laevis oocyte assessed as reduction in chloride current at 30 uM relative to control; set-up: scale not given: the % may be the effect or the level left; details: Homo sapiens

Structure (SMILES)	Activity (Oocyte [1])	Activity (Oocyte [2])	further results
COc1ccc2c(c1)-n1ncc(C(=O)NCc3ccccc3OC)c1NC2	inactive	Active	
COc1ccc2cnc3c(C(=O)NCc4ccccc4)cnn3c2c1	inactive	Active	
COc1ccc2c(c1)-n1ncc(C(=O)NCc3ccco3)c1NC2			Activity (Oocyte [3]): Active
COc1ccc2cnc3c(C(N)=O)cnn3c2c1	inactive	Active	
COc1ccc2cnc3c(C(=O)NCC4CCCCC4)cnn3c2c1	inactive	Active	
COc1ccc2c(c1)-n1ncc(C(=O)NCc3ccccc3)c1NC2	inactive	Active	
COc1ccc2c(c1)-n1ncc(C(=O)NCC3CCCCC3)c1NC2	inactive	Active	
COc1ccc2c(c1)-n1ncc(C(=O)NC(C)C)c1NC2	inactive	90%	
COc1ccc2cnc3c(C(=O)NCc4ccccc4OC)cnn3c2c1	inactive	Active	
COc1ccc2cnc3c(C(=O)NC(C)C)cnn3c2c1	inactive	Active	
COc1ccc2cnc3c(C(=O)Nc4ccccc4)cnn3c2c1			Activity (Oocyte [3]): 34%
COc1ccc2cnc3c(C(=O)NCc4ccco4)cnn3c2c1			Activity (Oocyte [3]): Active
COc1ccc2cnc3c(C(=O)NC4CCCCC4)cnn3c2c1			Activity (Oocyte [4]): 49%; Activity (Oocyte [5]): 19%
COc1ccc2cnc3c(C(=O)NCc4cccs4)cnn3c2c1			Activity (Oocyte [3]): 34%
COc1ccc2c(c1)-n1ncc(C(N)=O)c1NC2	inactive	Active	
COc1ccc2c(c1)-n1ncc(C(=O)Nc3ccccc3)c1NC2			Activity (Oocyte [3]): 34%
COc1ccc2c(c1)-n1ncc(C(=O)NC3CCCCC3)c1NC2	inactive	Active	
